Data from PubChem BioAssay (NCI).
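These data come from cells grown in 96-well plates and exposed to compound for 48 hours at five concentrations. GI50: concentration for 50% inhibition of growth. TGI: total growth inhibition.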

How the values were obtained:
Assay in all cases: inhibition of tumour cell growth, NCI panel, 48 h
COLO 205 colon = test system: COLO 205 colon
HCT-15 colon = test system: HCT-15 colon
HOP-62 NSCLC = test system: HOP-62 NSCLC
HOP-92 NSCLC = test system: HOP-92 NSCLC
HT29 colon = test system: HT29 colon
MOLT-4 leukemia = test system: MOLT-4 leukemia
NCI-H23 lung = test system: NCI-H23 lung
SF-539 CNS = test system: SF-539 CNS
SNB-19 CNS = test system: SNB-19 CNS
MDA-MB-231 breast = test system: MDA-MB-231 breast

Row | Structure (SMILES) | TGI (COLO 205 colon) | TGI (HCT-15 colon) | TGI (HOP-62 NSCLC) | TGI (HOP-92 NSCLC) | TGI (HT29 colon) | TGI (MOLT-4 leukemia) | TGI (NCI-H23 lung) | TGI (SF-539 CNS) | TGI (SNB-19 CNS) | GI50 (COLO 205 colon) | GI50 (HCT-15 colon) | GI50 (HOP-62 NSCLC) | GI50 (HT29 colon) | GI50 (MDA-MB-231 breast) | TGI (MDA-MB-231 breast) | GI50 (NCI-H23 lung) | GI50 (SNB-19 CNS) | GI50 (SF-539 CNS) | GI50 (MOLT-4 leukemia) | GI50 (HOP-92 NSCLC)
1 | CC(=O)O[C@H]1CC[C@@]2(C)C(=CC[C@H]3C(CC#N)[C@@](C)(C#N)CCC32)C1 (stereo not given in full) | > 100 µM | > 100 µM | > 100 µM | 88.9 µM | > 100 µM | > 100 µM | > 100 µM | > 100 µM | > 100 µM | – | – | – | – | – | – | – | – | – | – | –
2 | CCOC(=O)NC(=O)c1cn(C2CCCCC2)c(=O)n(C)c1=O | > 100 µM | > 100 µM | > 100 µM | > 100 µM | > 100 µM | > 100 µM | > 100 µM | > 100 µM | > 100 µM | – | – | – | – | – | – | – | – | – | – | –
3 | CC(=O)CCc1ccc(Oc2c3ccccc3nc3occc23)cc1 | 33.1 µM | 73.7 µM | 35.4 µM | – | 50.6 µM | – | 39.3 µM | – | 48 µM | 16.8 µM | 18.6 µM | 20.1 µM | 18 µM | 25.5 µM | > 100 µM | 13 µM | 19.5 µM | – | – | –
4 | CC(=O)OC1CC2C(C)(C)C(=O)C=C[C@]2(C)C2CCC3(C)C(c4ccoc4)C(=O)C4OC43[C@]12C (stereo not given in full) | 34.2 µM | 29.9 µM | 57.9 µM | 38.1 µM | 32.1 µM | 50.8 µM | 31.2 µM | 40.2 µM | 80.7 µM | – | – | – | – | – | – | – | – | – | – | –
5 | CO[C@H]1/C=C/O[C@@]2(C)Oc3c(C)c(O)c4c(O)c(c(/C=N/N5C(C)CN(Cc6ccc(C#N)cc6)CC5C)c(O)c4c3C2=O)NC(=O)/C(C)=C\C=C\[C@H](C)[C@H](O)[C@@H](C)[C@@H](O)[C@@H](C)[C@H](OC(C)=O)[C@@H]1C (stereo not given in full) | 16.4 µM | 14 µM | 20.6 µM | – | 14.4 µM | – | 30.7 µM | 13 µM | 18.1 µM | 6.82 µM | 6.01 µM | 9.76 µM | 6.87 µM | 7.49 µM | 14.9 µM | 9.67 µM | 7.55 µM | 6.22 µM | – | –
6 | COC(=O)CCCCCOS(=O)(=O)c1ccc(C)cc1 | > 100 µM | > 100 µM | – | > 100 µM | > 100 µM | > 100 µM | > 100 µM | > 100 µM | > 100 µM | – | – | – | – | – | – | – | – | – | – | –
7 | O=C(Nc1ccc(Cl)cc1)c1cc(NCc2cc(O)ccc2O)ccc1O | 28.5 µM | 6.01 µM | 51.7 µM | – | 58.5 µM | 32.9 µM | 31.4 µM | 4.16 µM | 21.2 µM | 5.29 µM | 1.81 µM | 22 µM | 22.2 µM | 3.49 µM | 13.6 µM | 11.8 µM | 8.33 µM | 1.73 µM | 3.28 µM | –
8 | O=C(N/N=C/c1ccc([N+](=O)[O-])cc1)c1ccccc1Nc1ccnc(C(F)(F)F)c1 | 39.8 µM | > 100 µM | 95.1 µM | – | > 100 µM | 40.5 µM | > 100 µM | > 100 µM | > 100 µM | 18.2 µM | 3.8 µM | 31.2 µM | 30.7 µM | 21.7 µM | 77.1 µM | 9.47 µM | 23.9 µM | 30.3 µM | 5.33 µM | –
9 | Nc1ccc(C(=O)CC2(O)C(=O)Nc3ccccc32)cc1 (stereo not given) | > 100 µM | > 100 µM | – | > 100 µM | > 100 µM | > 100 µM | > 100 µM | > 100 µM | > 100 µM | – | – | – | – | – | – | – | – | – | – | –
10 | COc1cccc(/C=C2\N=C(Cl)OC2=O)c1O | > 100 µM | > 100 µM | > 100 µM | > 100 µM | > 100 µM | > 100 µM | > 100 µM | > 100 µM | > 100 µM | – | – | – | – | – | – | – | – | – | – | –
11 | O=c1cccccc1O | > 100 µM | > 100 µM | – | > 100 µM | > 100 µM | > 100 µM | > 100 µM | – | > 100 µM | – | – | – | – | – | > 100 µM | – | – | – | – | –
12 | CC1CCCc2c1n[nH]c2CC1CC(=O)NC(=O)C1 (stereo not given) | > 100 µM | > 100 µM | > 100 µM | > 100 µM | > 100 µM | > 100 µM | > 100 µM | > 100 µM | > 100 µM | – | – | – | – | – | – | – | – | – | – | –
13 | CCCC[C@H](CCc1ccccc1)N(C(=O)OC)N1CCC[C@H]1COC | 30.8 µM | – | 40.4 µM | 40.5 µM | 29.4 µM | > 100 µM | 32 µM | 33 µM | 30.4 µM | – | – | – | – | – | – | – | – | – | – | –
14 | NC1=C(O)/C(=N/NS(=O)(=O)c2ccccc2)C(c2ccc3c(c2)OCO3)O1 (stereo not given) | > 100 µM | > 100 µM | > 100 µM | > 100 µM | > 100 µM | > 100 µM | > 100 µM | > 100 µM | > 100 µM | – | – | – | – | – | – | – | – | – | – | –
15 | NC(CCl)=NCC12CC3CC(CC(C3)C1)C2 | 3.19 µM | 13.7 µM | 11.4 µM | – | 2.93 µM | 1.73 µM | 4.17 µM | 11.2 µM | 23 µM | 1.15 µM | 0.807 µM | 0.796 µM | 0.458 µM | 1.75 µM | 11.3 µM | 0.678 µM | 10 µM | 0.702 µM | 0.333 µM | –
16 | OCC#Cc1ccccc1C#Cc1ccc(C#Cc2ccccc2C#CCO)cc1 | > 100 µM | > 100 µM | 68.5 µM | – | > 100 µM | 39.6 µM | > 100 µM | 91.5 µM | > 100 µM | > 100 µM | > 100 µM | 28.1 µM | 45.4 µM | 25.5 µM | 58.1 µM | 41.5 µM | 50 µM | 34.9 µM | 15.9 µM | –
17 | O=[N+]([O-])c1cc(I)cc(/C=N/NS(=O)(=O)c2ccc(F)cc2)c1O | 32.4 µM | 64.7 µM | 55.8 µM | 36.3 µM | 46.5 µM | 57.7 µM | 38.9 µM | 55.8 µM | > 100 µM | – | – | – | – | – | – | – | – | – | – | –
18 | C[N+]1(CCNP(=S)(NCC[N+]2(C)Cc3c(ccc4c3OCO4)C3C2c2cc4c(cc2C[C@@H]3O)OCO4)NCC[N+]2(C)Cc3c(ccc4c3OCO4)C3C2c2cc4c(cc2C[C@@H]3O)OCO4)Cc2c(ccc3c2OCO3)C2C1c1cc3c(cc1C[C@H]2O)OCO3 (stereo not given in full) | – | < 0.00191 µM | – | – | – | – | – | – | – | 1.65 µM | – | 7.52 µM | 1.34 µM | – | – | 2.25 µM | 7.66 µM | 1.99 µM | – | 3.43 µM
